Data: PMC11479992, “Branched oncolytic peptides target HSPGs, inhibit metastasis, and trigger the release of molecular determinants of immunogenic cell death in pancreatic cancer” (Frontiers in Molecular Biosciences, 2024)
Where a name gives a salt, the structure may show the parent alone. Bridges are numbered along the chain shown (N, C = ends). Roman numbers before positions name the chains, in order. Where no end group is shown, it is not given here.

What was measured:
[1] = system: ATP release by PANC-1 cells; test: Extracellular ATP bioluminescence assay; assay type: cell-based, human; settings: 50 μM
Experimental: PANC-1 cells were seeded (10 × 10^3 cells/well) in an opaque-walled 96-well plate and incubated overnight at 37°C in a 5% CO2 atmosphere. The following day, each well was treated with 150 μL BOP7, BOP9, daunorubicin hydrochloride (Sigma Aldrich) or irinotecan hydrochloride (cod. PHR2717, Sigma Aldrich) at different concentrations (from 50 to 2 μM). At the same time, each well was incubated with 50 μL RealTime-Glo Extracellular ATP Reagent Substrate (Promega). The plate was incubated at 37° and bioluminescence was measured at 560 nm at different time intervals with a VICTOR NIVO 5S luminometer (Perkin Elmer, Waltham, MA, United States). Data was analysed using GraphPad Prism version 9.5.0 software.

[2] = system: IFN-β secretion by PANC-1 cells; test: IFN-β release ELISA; assay type: cell-based, human; settings: 300 to 2 μM, 24 h, n = 3
Experimental: PANC-1 cells were seeded 5 × 10^4 cells/well in a 96-well plate and incubated overnight at 37°C in a 5% CO2 atmosphere. Cells were then treated with BOP7, BOP9, daunorubicin hydrochloride (Sigma Aldrich) and irinotecan hydrochloride (Sigma Aldrich) at different concentrations (from 300 to 2 μM) and left for 24 h at 37°C. At the same time, a DuoSet ELISA plate (R&D Systems Inc., Minneapolis, MN, United States) for the detection of IFN-β was prepared following the manufacturer’s instructions. The plate was sensitized with 100 μL/well of capture antibody for 24 h. PANC-1 supernatants were collected and centrifuged for 5 min at 1,200 rpm, added to the DuoSet plate at 100 μL/well and incubated for 2 h at room temperature. The detection antibody conjugated with streptavidin-peroxidase was then added. After adding the substrate solution, the plate was read at 450 nm using a microplate spectrophotometer (Multiskan, Thermo Scientific). Data was analysed using GraphPad Prism version 9.5.0 software.

[3] = system: HMGB1 release by PANC-1 cells; test: HMGB1 release ELISA; assay type: cell-based, human; settings: 300 to 2 μM, 24 h, ELISA of supernatants, n = 3
Experimental: PANC-1 cells were seeded 5 × 10^4 cells/well in a standard 96-well plate and incubated overnight at 37°C in a 5% CO2 atmosphere. Then they were treated with BOP7, BOP9, daunorubicin hydrochloride (Sigma Aldrich) and irinotecan hydrochloride (Sigma Aldrich) at different concentrations (from 300 to 2 μM in 200 μL) and left for 24 h at 37°C. The following day, release of HMGB1 in the culture medium was assessed with an HMGB1 ELISA kit (IBL International, Hamburg, Germany) in the PANC-1 supernatants, according to the manufacturer’s instructions. Optical density was measured at 450 nm with a microplate spectrophotometer (Multiskan, Thermo Scientific). Data was analysed using GraphPad Prism version 9.5.0 software.

PANC-1 cells = assay type: cell-based, human; settings: 24 h
Experimental: (§1) PANC-1, PANC-1-luc2, Mia PaCa-2 or CHO-K1 cells were seeded 5 × 10^4 cells/well in a standard 96-well plate and incubated overnight at 37°C, 5% CO2 atmosphere. Each well was treated with 200 μL BOP7 or BOP9 at different concentrations (from 100 to 0.08 μM) and incubated for 24 h. PANC-1 and Mia PacCa-2 were also tested with linear peptides L7 and L9 at concentrations ranging from 781 to 0.5 μM under the same conditions. Growth inhibition was assessed with a MMT assay (3-(4,5-dimethylthiazol-2-yl)-2,5-diphenyltetrazolium bromide) (Sigma Aldrich). Optical density was measured at 595 and 650 nm with a microplate spectrophotometer (Multiskan, Thermo Scientific). Experiments were repeated twice in quintuplicate. Cell viability was measured by comparing values of treated and untreated cells. IC50 values were calculated by non-linear regression analysis using GraphPad Prism version 9.5.0 software.

Mia PaCa-2 cells = assay type: cell-based, human; settings: 24 h
Experimental: as §1

CHO-K1 cells = assay type: cell-based, chinese hamster; settings: 24 h
Experimental: as §1, with “Each well was treated with 200 μL BOP7 or BOP9 at different concentrations (from 100 to 0.08 μM) and incubated for 24 h.” left out

Compound	time after which ATP release returned to baseline [1]	time of peak of ATP release [1]	ATP release ([1]; bioluminescence over time)	IFN-β release [2]	HMGB1 release [3]	IC50 (PANC-1 cells)	IC50 (Mia PaCa-2 cells)	IC50 (CHO-K1 cells)
COc1cccc2c1C(=O)c1c(O)c3c(c(O)c1C2=O)C[C@@](O)(C(C)=O)C[C@@H]3O[C@H]1C[C@H](N)[C@H](O)[C@H](C)O1 [daunorubicin, daunorubicin hydrochloride]	6 h	3 h	most effective agent	did not result in a statistically significant release	most effective inducer even at the lowest concentrations			
CCc1c2c(nc3ccc(OC(=O)N4CCC(N5CCCCC5)CC4)cc13)-c1cc3c(c(=O)n1C2)COC(=O)[C@]3(O)CC [irinotecan, irinotecan hydrochloride]				did not result in a statistically significant release				
I: KKKLKFKKLQKK-NH2 / II: KKKLKFKKLQK / III: KKKLKFKKLQ / IV: KKKLKFKKLQ (amide I:11-IV:C, I:12-II:C, II:11-III:C) [BOP9]						8.3 µM	17.8 µM	16 mM
I: LLKKKFKKLQKK-NH2 / II: LLKKKFKKLQK / III: LLKKKFKKLQ / IV: LLKKKFKKLQ (amide I:11-IV:C, I:12-II:C, II:11-III:C) [BOP7]						1.67 µM	27.3 µM	5 mM
